Experimental data as given in patent US4311842A, “Cephalosporin compounds” (Yamanouchi Pharmaceutical Co., Ltd., priority 1978, dated 1982).
Values after ≈ are worked out from the molar mass of the structure shown.

Tests used:
Type in all cases: cell-based
[1] = system: Bacillus subtilis ATCC 6633; assay: Antibacterial activity, minimum inhibitory concentration, Bacillus subtilis ATCC 6633; details: ATCC6633
Text: (§1) The antibacterial activity (the minimum inhibitory concentration) of the compounds of this invention shown by formula I is shown in the following table in comparison to those of known compounds having similar structures, 7-[2-amino-2-(2-aminothiazol-4-yl)acetamido]-3-(1-methyl-tetrazol-5-yl)thiomethyl-Δ^3 -cephem-4-carboxylic acid (Compound A) having the following formula [drawing 8] and 7-[2-amino-2-(2-aminothiazol-4-yl)acetamido]cephalosporanic acid Compound B) having the following formula; [drawing 9]

[2] = system: Staphylococcus aureus ATCC 6538P; assay: Antibacterial activity, minimum inhibitory concentration, Staphylococcus aureus ATCC 6538P; details: ATCC6538P
Text: as §1

[3] = system: Staphylococcus aureus Oonuma; assay: Antibacterial activity, minimum inhibitory concentration, Staphylococcus aureus Oonuma; details: Staphylococcus aureus Oonuma (penicillin, Streptomycin-resistant)
Text: as §1

[4] = system: Staphylococcus aureus 209P; assay: Antibacterial activity, minimum inhibitory concentration, Staphylococcus aureus 209P
Text: as §1

Corynebacterium xerosis = assay: Antibacterial activity, minimum inhibitory concentration, Corynebacterium xerosis
Text: as §1

Vibrio Hy 133 = assay: Antibacterial activity, minimum inhibitory concentration, Vibrio Hy 133; details: HY133
Text: as §1

Proteus vulgaris OXK US = assay: Antibacterial activity, minimum inhibitory concentration, Proteus vulgaris OXK US
Text: as §1

[5] = system: Pseudomonas aeruginosa NCTC 10490; assay: Antibacterial activity, minimum inhibitory concentration, Pseudomonas aeruginosa NCTC 10490; details: NCTC10490
Text: as §1

[6] = system: Salmonella enteritidis 1891; assay: Antibacterial activity, minimum inhibitory concentration, Salmonella enteritidis 1891; details: Salmonella enterica
Text: as §1

[7] = system: Proteus mirabilis IFM OM-9; assay: Antibacterial activity, minimum inhibitory concentration, Proteus mirabilis IFM OM-9; details: IFMOM9
Text: as §1

[8] = system: Pseudomonas aeruginosa ATCC 8689; assay: Antibacterial activity, minimum inhibitory concentration, Pseudomonas aeruginosa ATCC 8689; details: ATCC8689
Text: as §1

[9] = system: Pseudomonas aeruginosa 99; assay: Antibacterial activity, minimum inhibitory concentration, Pseudomonas aeruginosa 99; details: Pseudomonas aeruginosa 99 (Gentamicin-resistant)
Text: as §1

Compound	MIC [1]	MIC [2]	MIC [3]	MIC [4]	MIC (Corynebacterium xerosis)	MIC (Vibrio Hy 133)	MIC (Proteus vulgaris OXK US)	MIC [5]	MIC [6]	MIC [7]	MIC [8]	MIC [9]
CC(=O)OCC1=C(C(=O)O)N2C(=O)C(NC(=O)C(NC(=O)c3cnc(C)cc3O)c3cscn3)C2SC1 (racemic) [Example 1, DL-7-[2-(4-hydroxy-6-methylnicotinamido)-2-(thiazol-4-yl)acetamido]-cephalosporanic acid]	3.13 µg/mL (≈ 5.72 µM)	3.13 µg/mL (≈ 5.72 µM)	6.25 µg/mL (≈ 11.4 µM)	1.56 µg/mL (≈ 2.85 µM)	3.13 µg/mL (≈ 5.72 µM)	0.78 µg/mL (≈ 1.42 µM)	1.56 µg/mL (≈ 2.85 µM)	1.56 µg/mL (≈ 2.85 µM)	3.13 µg/mL (≈ 5.72 µM)	3.13 µg/mL (≈ 5.72 µM)	25 µg/mL (≈ 45.7 µM)	25 µg/mL (≈ 45.7 µM)
CC(=O)OCC1=C(C(=O)O)N2C(=O)C(NC(=O)C(NC(=O)c3cnc(C)cc3O)c3csc(N)n3)C2SC1 (racemic) [Example 2, DL-7-[2-(4-hydroxy-6-methylnicotinamido)-2-(2-aminothiazol-4-yl)acetamido]cephalosporanic acid]	6.25 µg/mL (≈ 11.1 µM)	6.25 µg/mL (≈ 11.1 µM)	12.5 µg/mL (≈ 22.2 µM)	3.13 µg/mL (≈ 5.56 µM)	6.25 µg/mL (≈ 11.1 µM)	0.78 µg/mL (≈ 1.39 µM)	0.78 µg/mL (≈ 1.39 µM)	1.56 µg/mL (≈ 2.77 µM)	0.78 µg/mL (≈ 1.39 µM)	0.39 µg/mL (≈ 0.693 µM)	50 µg/mL (≈ 88.9 µM)	25 µg/mL (≈ 44.4 µM)
CC(=O)OCC1=C(C(=O)O)N2C(=O)C(NC(=O)C(NC(=O)c3csccc3=O)c3csc(N)n3)C2SC1 (racemic) [Example 3, DL-7-[2-(2-aminothiazol-4-yl)-2-(4-oxo-4H-thiopyran-3-carboxamido)-acetamido]cephalosporanic acid]	3.13 µg/mL (≈ 5.53 µM)	3.13 µg/mL (≈ 5.53 µM)	6.25 µg/mL (≈ 11 µM)	1.56 µg/mL (≈ 2.76 µM)	3.13 µg/mL (≈ 5.53 µM)	0.78 µg/mL (≈ 1.38 µM)	1.56 µg/mL (≈ 2.76 µM)	25 µg/mL (≈ 44.2 µM)	0.39 µg/mL (≈ 0.69 µM)	0.78 µg/mL (≈ 1.38 µM)	100 µg/mL (≈ 177 µM)	100 µg/mL (≈ 177 µM)
CC(=O)OCC1=C(C(=O)O)N2C(=O)C(NC(=O)C(NC(=O)c3csccc3=O)c3cscn3)C2SC1 (racemic) [Example 4, DL-7-[2-(4-oxo-4H-thiopyran-3-carboxamido)-2-(thiazol-4-yl)acetamido]cephalosporanic acid]	1.56 µg/mL (≈ 2.83 µM)	1.56 µg/mL (≈ 2.83 µM)	6.25 µg/mL (≈ 11.4 µM)	1.56 µg/mL (≈ 2.83 µM)	1.56 µg/mL (≈ 2.83 µM)	0.78 µg/mL (≈ 1.42 µM)	3.13 µg/mL (≈ 5.68 µM)	6.25 µg/mL (≈ 11.4 µM)	6.25 µg/mL (≈ 11.4 µM)	6.25 µg/mL (≈ 11.4 µM)	100 µg/mL (≈ 182 µM)	100 µg/mL (≈ 182 µM)
Cn1nnnc1SCC1=C(C(=O)O)N2C(=O)C(NC(=O)C(NC(=O)c3csccc3=O)c3cscn3)C2SC1 (racemic) [Example 5, DL-7-[2-(4-oxo-4H-thiopyran-3-carboxamido)-2-(thiazol-4-yl)acetamido]-3-(1-methyltetrazol-5-yl)thiomethyl-Δ^3-cephem-4-carboxylic acid]	3.13 µg/mL (≈ 5.16 µM)	1.56 µg/mL (≈ 2.57 µM)	6.25 µg/mL (≈ 10.3 µM)	0.78 µg/mL (≈ 1.29 µM)	3.13 µg/mL (≈ 5.16 µM)	0.39 µg/mL (≈ 0.643 µM)	1.56 µg/mL (≈ 2.57 µM)	1.56 µg/mL (≈ 2.57 µM)	0.78 µg/mL (≈ 1.29 µM)	1.56 µg/mL (≈ 2.57 µM)	50 µg/mL (≈ 82.4 µM)	50 µg/mL (≈ 82.4 µM)
Cn1nnnc1SCC1=C(C(=O)O)N2C(=O)C(NC(=O)C(NC(=O)c3csccc3=O)c3csc(N)n3)C2SC1 (racemic) [Example 6, DL-7-[2-(2-aminothiazol-4-yl)-2-(4-oxo-4H-thiopyran-3-carboxyamido)acetamido]-3-(1-methyltetrazol-5-yl)thiomethyl-Δ^3-cephem-4-carboxylic acid]	1.56 µg/mL (≈ 2.51 µM)	1.56 µg/mL (≈ 2.51 µM)	3.13 µg/mL (≈ 5.03 µM)	0.78 µg/mL (≈ 1.25 µM)	1.56 µg/mL (≈ 2.51 µM)	0.78 µg/mL (≈ 1.25 µM)	0.19 µg/mL (≈ 0.306 µM)	0.78 µg/mL (≈ 1.25 µM)	0.19 µg/mL (≈ 0.306 µM)	0.09 µg/mL (≈ 0.145 µM)	50 µg/mL (≈ 80.4 µM)	50 µg/mL (≈ 80.4 µM)
Cc1cc(O)c(C(=O)NC(C(=O)NC2C(=O)N3C(C(=O)O)=C(CSc4nnnn4C)CSC23)c2csc(N)n2)cn1 (racemic) [Example 7, DL-7-[2-(2-aminothiazol-4-yl)-2-(4-hydroxy-6-methylnicotinamido)acetamido]-3-(1-methyltetrazol-5-yl)thiomethyl-Δ^3-cephem-4-carboxylic acid]	3.13 µg/mL (≈ 5.06 µM)	1.56 µg/mL (≈ 2.52 µM)	6.25 µg/mL (≈ 10.1 µM)	1.56 µg/mL (≈ 2.52 µM)	6.25 µg/mL (≈ 10.1 µM)	0.78 µg/mL (≈ 1.26 µM)	0.19 µg/mL (≈ 0.307 µM)	0.39 µg/mL (≈ 0.63 µM)	0.09 µg/mL (≈ 0.145 µM)	0.09 µg/mL (≈ 0.145 µM)	25 µg/mL (≈ 40.4 µM)	12.5 µg/mL (≈ 20.2 µM)
Cc1cc(O)c(C(=O)NC(C(=O)NC2C(=O)N3C(C(=O)O)=C(CSc4nnnn4C)CSC23)c2cscn2)cn1 (racemic) [Example 8, DL-7-[2-(4-hydroxy-6-methylnicotinamido)-2-(thiazol-4-yl)-acetamido]-3-(1-methyltetrazol-5-yl)thiomethyl-Δ^3-cephem-4-carboxylic acid]	3.13 µg/mL (≈ 5.18 µM)	1.56 µg/mL (≈ 2.58 µM)	6.25 µg/mL (≈ 10.4 µM)	1.56 µg/mL (≈ 2.58 µM)	3.13 µg/mL (≈ 5.18 µM)	0.78 µg/mL (≈ 1.29 µM)	1.56 µg/mL (≈ 2.58 µM)	0.78 µg/mL (≈ 1.29 µM)	0.78 µg/mL (≈ 1.29 µM)	1.56 µg/mL (≈ 2.58 µM)	25 µg/mL (≈ 41.4 µM)	12.5 µg/mL (≈ 20.7 µM)
Cn1nnnc1SCC1=C(C(=O)O)N2C(=O)C(NC(=O)C(N)c3csc(N)n3)C2SC1 (stereo not drawn) [Compound A, 7-[2-amino-2-(2-aminothiazol-4-yl)acetamido]-3-(1-methyl-tetrazol-5-yl)thiomethyl-Δ^3-cephem-4-carboxylic acid, reference compound]	12.5 µg/mL (≈ 25.8 µM)	25 µg/mL (≈ 51.7 µM)	100 µg/mL (≈ 207 µM)	12.5 µg/mL (≈ 25.8 µM)	25 µg/mL (≈ 51.7 µM)	6.25 µg/mL (≈ 12.9 µM)	6.25 µg/mL (≈ 12.9 µM)	100 µg/mL (≈ 207 µM)	0.78 µg/mL (≈ 1.61 µM)	1.56 µg/mL (≈ 3.23 µM)	> 100 µg/mL	> 100 µg/mL
CC(=O)OCC1=C(C(=O)O)N2C(=O)C(NC(=O)C(N)c3csc(N)n3)C2SC1 (stereo not drawn) [Compound B, 7-[2-amino-2-(2-aminothiazol-4-yl)acetamido]cephalosporanic acid, reference compound]	1.56 µg/mL (≈ 3.65 µM)	3.13 µg/mL (≈ 7.32 µM)	12.5 µg/mL (≈ 29.2 µM)	3.13 µg/mL (≈ 7.32 µM)	3.13 µg/mL (≈ 7.32 µM)	1.56 µg/mL (≈ 3.65 µM)	3.13 µg/mL (≈ 7.32 µM)	> 100 µg/mL	0.78 µg/mL (≈ 1.82 µM)	1.56 µg/mL (≈ 3.65 µM)	> 100 µg/mL	> 100 µg/mL
